14 compounds from patent publication US10130630B2, “BTK inhibitors” (MERCK SHARP & DOHME CORP., priority 2014, dated 2018) can be followed below.

In assay [1] the target is T1, BTK enzyme (full-length BTK, hBTK) (Homo sapiens, UniProt Q06187).
T1 construct: recombinant protein from baculovirus-transfected Sf9 cells: full-length BTK, 6HIS-tag cleaved; 6HIS (cleaved yes); made in house; host or cells: baculovirus-transfected Sf9 cells
As to the kind of experiment: Btk enzyme activity assay (LANCE TR-FRET). The note with it: 50 pM hBTK, 25 μM ATP, 60 minute compound and enzyme incubation, read-out: BTK binding IC50. The format is biochemical. The protocol: BTK enzymatic activity was determined with the LANCE (Lanthanide Chelate Excite) TR-FRET (Time-resolved fluorescence resonance energy transfer) assay. […] To each well of a black non-binding surface Corning 384-well microplate (Corning Catalog #3820), 5 nL of compound (2000 fold dilution in final assay volume of 10 μL) was dispensed, followed by the addition of 7.5 μL of 1× kinase buffer (50 mM Hepes 7.5, 10 mM MgCl2, 0.01% Brij-35, 1 mM EGTA, 0.05% BSA & 1 mM DTT) containing 5.09 pg/μL (66.67 pM) of BTK enzyme (recombinant protein from baculovirus-transfected Sf9 cells: full-length BTK, 6HIS-tag cleaved). Following a 60 minute compound and enzyme incubation, each reaction was initiated by the addition of 2.5 μL 1× kinase buffer containing 8 μM biotinylated “A5” peptide (Biotin-[…]-NH2) (SEQ.ID.NO.: 1), and 100 μM ATP. The final reaction in each well of 10 μL consists of 50 pM hBTK, 2 μM biotin-A5-peptide, and 25 μM ATP. Phosphorylation reactions were allowed to proceed for 120 minutes. Reactions were immediately quenched by the addition of 20 uL of 1× quench buffer (15 mM EDTA, 25 mM Hepes 7.3, and 0.1% Triton X-100) containing detection reagents (0.626 nM of LANCE-Eu-W1024-anti-phosphoTyrosine antibody, PerkinElmer and 86.8 nM of Streptavidin-conjugated Dylight 650, Dyomics/ThermoFisher Scientific). After 60 minutes incubation with detection reagents, reaction plates were read on a PerkinElmer EnVision plate reader using standard TR-FRET protocol. Briefly, excitation of donor molecules (Eu-chelate:anti-phospho-antibody) with a laser light source at 337 nm produces energy that can be transferred to Dylight-650 acceptor molecules if this donor:acceptor pair is within close proximity. Fluorescence intensity at both 665 nm (acceptor) and 615 nm (donor) are measured and a TR-FRET ratio calculated for each well (acceptor intensity/donor intensity). IC50 values were determined by 4 parameter robust fit of TR-FRET ratio values vs. (Log10) compound concentrations.
The following Table 2 provides specific IC50 values for all the examples. The IC50 values set forth below were determined according to Assay method described above.
(In general: In TR-FRET formats the signal depends on donor and acceptor labels being close together.)

Assay [2] relates to adenosine uptake into HeLa cells. Description: [3H]Adenosine uptake assay in HeLa cells. The format is cell-based. The settings on record: 60 minutes uptake, read-out: ADU inhibition IC50 (adenosine uptake inhibition potency). On the procedure: Compounds were also screened in an adenosine uptake functional cellular assay using the protocol described below.
Adenosine uptake activity was determined by monitoring the accumulation of tritiated adenosine into HeLa cells (ATCC catalog # CCL-2) using a PMT-based radiometric detection instrument. In this assay, the potency (IC50) of each compound was determined from a ten point (1:3 serial dilution; final compound concentration range in assay from 10 μM to 0.032 nM) titration curve using the following outlined procedure. To each well of a 96-well CytoStar-T scintillating microplate (Perkin Elmer Catalog # RPNQ0163), 25 000 HeLa cells in 100 μL of growth medium comprising: Minimum Essential Media (Life Technologies Catalog # 11095-080)+10% (v/v) foetal bovine serum (FBS; Sigma Aldrich Catalog # F2442) was added. These cells were incubated overnight at 37° C. in a humidified atmosphere with 5% (v/v) CO2. After this time the growth medium was removed and replaced with 40 μL assay medium comprising: Hanks balanced salts solution (HBSS; Thermo Fisher Catalog # SH30268.01)+5% (v/v) FBS. Compound stock solutions in DMSO were diluted in assay medium to 2.5× final compound concentration maintaining a constant DMSO concentration of 0.25% (v/v). 40 μL of compound in assay medium was dispensed into individual wells of the Cytostar-T plates and the plates were incubated for 30 minutes under ambient laboratory conditions. Following this incubation, 20 μL of 500 nM [^3H]adenosine (American Radiolabeled Chemicals Inc. Catalog # ART0287) in assay medium was added and incubated for a further 60 minutes under ambient laboratory conditions. The amount of radiolabel accumulation was then determined using a Perkin Elmer Topcount NXT microplate reader. In brief, HeLa cells adhere to the bottom of the Cytostar-T plate, uptake of [^3H]adenosine into these cells brings the radiolabel into sufficient proximity to excite the scintillant in the base of the plates. These events are captured by single PMT, time-resolved coincidence counting. IC50 values were determined by 4 parameter robust fit of counts per second values vs. (Log10) compound concentrations.

SMILES strings stand for the structures. Read-outs that look alike come from different tables or passages of the source.

T1 sequence (Q06187 whole entry): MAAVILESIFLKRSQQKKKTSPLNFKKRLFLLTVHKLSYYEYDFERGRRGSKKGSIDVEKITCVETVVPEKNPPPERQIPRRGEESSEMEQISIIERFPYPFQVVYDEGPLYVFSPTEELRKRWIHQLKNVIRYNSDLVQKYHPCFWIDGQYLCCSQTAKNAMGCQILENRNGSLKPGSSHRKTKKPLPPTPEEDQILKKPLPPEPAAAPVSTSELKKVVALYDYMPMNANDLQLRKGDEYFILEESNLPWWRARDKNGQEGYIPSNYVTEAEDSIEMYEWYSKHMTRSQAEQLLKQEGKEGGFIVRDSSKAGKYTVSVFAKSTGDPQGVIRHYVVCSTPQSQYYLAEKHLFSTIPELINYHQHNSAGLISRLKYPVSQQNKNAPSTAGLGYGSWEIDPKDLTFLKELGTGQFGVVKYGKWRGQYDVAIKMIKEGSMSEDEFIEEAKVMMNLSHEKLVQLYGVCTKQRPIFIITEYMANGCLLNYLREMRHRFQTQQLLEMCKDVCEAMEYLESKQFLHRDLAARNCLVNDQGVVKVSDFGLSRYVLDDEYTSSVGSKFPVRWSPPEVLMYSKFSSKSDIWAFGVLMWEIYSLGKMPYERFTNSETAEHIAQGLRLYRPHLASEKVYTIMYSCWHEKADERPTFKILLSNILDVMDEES

With `CCOc1cc(C(=O)Nc2cc(C(F)(F)F)ccn2)ccc1-c1nc([C@H]2CC[C@H]3N(C2)C(=O)C2(CC2)C3(F)F)n2ccnc(N)c12` [Compound 2, 4-(8-amino-3-((6′S,8a′R)-1′,1′-difluoro-3′-oxohexahydro-1′H-spiro[cyclopropane-1,2′-indolizin]-6′-yl)imidazo[1,5-a]pyrazin-1-yl)-3-ethoxy-N-(4-(trifluoromethyl)pyridin-2-yl)benzamide], the IC50 – broadly, the point on the concentration scale where inhibition reaches its midpoint – in assay [1] worked out at 11.8 nM; in assay [2] (Homo sapiens, HeLa) it was 895 nM.

On to `CCOc1cc(C(=O)Nc2cc(C(F)(F)F)ccn2)ccc1-c1nc([C@@H]2CC[C@@H]3N(C2)C(=O)C2(CC2)C3(F)F)n2ccnc(N)c12` [Compound 3, 4-(8-amino-3-((6′R,8a′S)-1′,1′-difluoro-3′-oxohexahydro-1′H-spiro[cyclopropane-1,2′-indolizin]-6′-yl)imidazo[1,5-a]pyrazin-1-yl)-3-ethoxy-N-(4-(trifluoromethyl)pyridin-2-yl)benzamide], for which the IC50 was found to be 1 nM in assay [1] and 1330 nM in assay [2].

With `CCOc1cc(C(=O)Nc2cc(C(F)(F)F)ccn2)ccc1-c1nc([C@@H]2CC[C@H]3C(=O)C4(CC4)C(=O)N3C2)n2ccnc(N)c12` [Compound 5, 4-{8-amino-3-[(6′R,8a′S)-1′,3′-dioxohexahydrospiro[cyclopropane-1,2′-indolizin]-6′-yl]imidazo[1,5-a]pyrazin-1-yl}-3-ethoxy-N-[4-(trifluoromethyl)pyridin-2-yl]benzamide], the IC50 in assay [1] was 1.47 nM; in assay [2] (Homo sapiens, HeLa), 912 nM.

As for `Nc1nccn2c([C@@H]3CC[C@H]4C(=O)C5(CC5)C(=O)N4C3)nc(-c3ccc(C(=O)Nc4cc(C(F)(F)F)ccn4)cc3)c12` [Compound 6, 4-{8-amino-3-[(6′R,8a′S)-1′,3′-dioxohexahydrospiro[cyclopropane-1,2′-indolizin]-6′-yl]imidazo[1,5-a]pyrazin-1-yl}-N-[4-(trifluoromethyl)pyridin-2-yl]benzamide], the IC50 in assay [1] was 0.857 nM; in assay [2] (Homo sapiens, HeLa), 152 nM.

In the case of `Nc1nccn2c([C@@H]3CC[C@H]4C(=O)C5(CC5)C(=O)N4C3)nc(-c3ccc(C(=O)Nc4cc(C(F)(F)F)ccn4)cc3F)c12` [Compound 7, 4-{8-amino-3-[(6′R,8a′S)-1′,3′-dioxohexahydrospiro[cyclopropane-1,2′-indolizin]-6′-yl]imidazo[1,5-a]pyrazin-1-yl}-3-fluoro-N-[4-(trifluoromethyl)pyridin-2-yl]benzamide], the IC50 was 0.425 nM in assay [1] and 173 nM in assay [2] (Homo sapiens, HeLa).

On to `Cc1ccnc(NC(=O)c2ccc(-c3nc([C@@H]4CC[C@H]5C(=O)C6(CC6)C(=O)N5C4)n4ccnc(N)c34)cc2)c1` [Compound 8, 4-{8-amino-3-[(6′R,8a′S)-1′,3′-dioxohexahydrospiro[cyclopropane-1,2′-indolizin]-6′-yl]imidazo[1,5-a]pyrazin-1-yl}-N-(4-methylpyridin-2-yl)benzamide], for which the IC50 amounted to 2.07 nM in assay [1] and 50.9 nM in assay [2] (Homo sapiens, HeLa).

As for `Nc1nccn2c([C@@H]3CC[C@H]4C(=O)C5(CC5)C(=O)N4C3)nc(-c3ccc(C(=O)Nc4cc(C5CC5)ccn4)cc3)c12` [Compound 9, 4-{8-amino-3-[(6′R,8a′S)-1′,3′-dioxohexahydrospiro[cyclopropane-1,2′-indolizin]-6′-yl]imidazo[1,5-a]pyrazin-1-yl}-N-(4-cyclopropylpyridin-2-yl)benzamide], the IC50 in assay [1] is 1.62 nM; in assay [2] (Homo sapiens, HeLa) it was 183 nM.

As to `Nc1nccn2c([C@@H]3CC[C@H]4[C@@H](O)C5(CC5)C(=O)N4C3)nc(-c3ccc(C(=O)Nc4cc(C(F)(F)F)ccn4)cc3)c12` [Compound 10, 4-{8-amino-3-[(1′S,6′R,8a′S)-1′-hydroxy-3′-oxohexahydrospiro[cyclopropane-1,2′-indolizin]-6′-yl]imidazo[1,5-a]pyrazin-1-yl}-N-[4-(trifluoromethyl)pyridin-2-yl]benzamide], the IC50 was 0.952 nM in assay [1] and 861 nM in assay [2] (Homo sapiens, HeLa).

In the case of `CCOc1cc(C(=O)Nc2cc(C(F)(F)F)ccn2)ccc1-c1nc([C@@H]2CC[C@H]3[C@@H](O)C4(CC4)C(=O)N3C2)n2ccnc(N)c12` [Compound 11, 4-{8-amino-3-[(1′S,6′R,8a′S)-1′-hydroxy-3′-oxohexahydrospiro[cyclopropane-1,2′-indolizin]-6′-yl]imidazo[1,5-a]pyrazin-1-yl}-3-ethoxy-N-[4-(trifluoromethyl)pyridin-2-yl]benzamide], the IC50 in assay [1] came out at 0.701 nM; in assay [2] (Homo sapiens, HeLa) it was 1990 nM.

As to `Nc1nccn2c([C@@H]3CC[C@H]4[C@@H](O)C5(CC5)C(=O)N4C3)nc(-c3ccc(C(=O)Nc4cc(C(F)(F)F)ccn4)cc3F)c12` [Compound 12, 4-(8-amino-3-((1′S,6′R,8a′S)-1′-hydroxy-3′-oxohexahydro-1′H-spiro[cyclopropane-1,2′-indolizin]-6′-yl)imidazo[1,5-a]pyrazin-1-yl)-3-fluoro-N-(4-(trifluoromethyl)pyridin-2-yl)benzamide], the IC50 in assay [1] was determined as 0.385 nM; in assay [2] (Homo sapiens, HeLa), 963 nM.

As for `Nc1nccn2c([C@@H]3CC[C@H]4C(O)C5(CC5)C(=O)N4C3)nc(-c3ccc(C(=O)Nc4cc(C5CC5)ccn4)cc3)c12` (stereo partly drawn) [Compound 13, 4-(8-amino-3-((1′S,6′R,8a′S)-1′-hydroxy-3′-oxohexahydro-1′H-spiro[cyclopropane-1,2′-indolizin]-6′-yl)imidazo[1,5-a]pyrazin-1-yl)-N-(4-cyclopropanepyridin-2-yl)benzamide], the IC50 came out at 1.22 nM in assay [1] and 610 nM in assay [2] (Homo sapiens, HeLa).

As for `CCOc1cc(C(=O)Nc2cc(C(F)(F)F)ccn2)ccc1-c1nc([C@@H]2CC[C@H]3[C@@H](OC)C4(CC4)C(=O)N3C2)n2ccnc(N)c12` [Compound 14, 4-(8-amino-3-((1′S,6′R,8a′S)-1′-methoxy-3′-oxohexahydro-1′H-spiro[cyclopropane-1,2′-indolizin]-6′-yl)imidazo[1,5-a]pyrazin-1-yl)-3-ethoxy-N-(4-(trifluoromethyl)pyridin-2-yl)benzamide], the IC50 stood at 1.28 nM in assay [1] and 828 nM in assay [2] (Homo sapiens, HeLa).

Turning to `CCOc1cc(C(=O)Nc2cc(C(F)(F)F)ccn2)ccc1-c1nc([C@@H]2CC[C@H]3CN4CCC[C@@H]4C(=O)N3C2)n2ccnc(N)c12` [Compound 15, 4-{8-amino-3-[(5aS,8R,11aR)-11-oxodecahydro-1H-pyrido[1,2-a]pyrrolo[1,2-d]pyrazin-8-yl]imidazo[1,5-a]pyrazin-1-yl}-3-ethoxy-N-[4-(trifluoromethyl)pyridin-2-yl]benzamide], the IC50 in assay [1] is 0.462 nM; in assay [2] (Homo sapiens, HeLa) it was 1110 nM.

On to `CCOc1cc(C(=O)Nc2cc(C(F)(F)F)ccn2)ccc1-c1nc([C@@H]2CC[C@H]3CN4CCC[C@H]4C(=O)N3C2)n2ccnc(N)c12` [Compound 16, 4-{8-amino-3-[(5aS,8R,11aS)-11-oxodecahydro-1H-pyrido[1,2-a]pyrrolo[1,2-d]pyrazin-8-yl]imidazo[1,5-a]pyrazin-1-yl}-3-ethoxy-N-[4-(trifluoromethyl)pyridin-2-yl]benzamide], for which the IC50 in assay [1] was determined as 0.489 nM; in assay [2] (Homo sapiens, HeLa) it was 1670 nM.
